Reference: PMC11393688, “Design and synthesis of new 1,2,4-oxadiazole/quinazoline-4-one hybrids with antiproliferative activity as multitargeted inhibitors” (Frontiers in Chemistry, 2024)

How the values were obtained:
[1] = Cell viability, MTT test on normal cell line; type: cell-based; settings: human, MCF-10A mammary gland epithelial cells (normal cell line), MCF-10A normal cells, 4 days incubation
Description: The human mammary gland epithelial (MCF-10A) normal cell line was used to test the viability of novel compounds 9a-o ([Mahmoud et al., 2022]; [Mekheimer et al., 2022]). After 4 days of incubation on MCF-10A cells, the cell viability of compounds 9a-o was determined using the MTT test.
The human mammary gland epithelial (MCF-10A) normal cell line was used to test the viability of compounds 9a-o ([Mahmoud et al., 2022]; [Mekheimer et al., 2022]). Refer to Supplementary Appendix A (Supplementary Material) for more details.
4.2. Biological evaluation
4.2.1. Cytotoxic activity using MTT Assay and evaluation of IC50
MTT assay was carried out to study the effect of compounds on mammary epithelial cells (MCF-10A). The medium in which cells were propagated contained Dulbecco's modified Eagle's medium (DMEM)/ Ham's F-12 medium (1:1) supplemented with epidermal growth factor (20 ng/mL), hydrocortisone (500 ng/mL), insulin (10 μg/mL), 2 mM glutamine and 10% foetal calf serum.
After every 2-3 days, the cells were passaged using trypsin ethylenediamine tetra acetic acid (EDTA). The cells were seeded at a density of 10^4 cells mL-1 in flat-bottomed culture plates containing 96 wells each. After 24 h, medium was removed from the plates and the compounds in (in 0.1% DMSO) were added (in 200 μL medium to yield a final concentration of 0.1% v/v) to the wells of plates. A single compound was designated with four wells followed by incubation of plates for 96h at 37°C. After incubation, medium was removed completely from the plates followed by addition of MTT (0.4 mg/mL in medium) to each well and subsequent incubation of plates for 3h. MTT (along with the medium) was removed and DMSO (150μL) was added to each well of the culture plates, followed by vertexing and subsequent measurement of absorbance (at 540 nm) using microplate reader. The data are shown as percentage inhibition of proliferation in comparison with controls containing 0.1% DMSO.

A-549 cells = assay: Cell cycle analysis by flow cytometry; type: cell-based, human; settings: A-549, IC50 concentration, 24 h
Excerpt: Compound 9b was investigated for its effects on cell cycle progression and apoptosis induction in A-549 cells. […] The cell line was labeled with PI/Annexin V, and flow cytometry was done with a BD FASC Caliber ([El-Sherief et al., 2018]).
Compound 9b was investigated for its effects on cell cycle progression and apoptosis induction in A-549 cells. […] The cell line was labeled with PI/Annexin V, and flow cytometry was done with a BD FASC Caliber ([El-Sherief et al., 2018]). See Supplementary Appendix A for more details.

[2] = system: colon cancer (HT-29) cell line; assay: Antiproliferative MTT assay, HT-29; type: cell-based; settings: Homo sapiens, HT-29 colon cancer cells, read-out: Antiproliferative activity IC50 ± SEM HT-29

IC50 [2]: 24 ± 2 nM
SMILES: O=c1c2ccccc2nc(SCc2nc(-c3ccc(Cl)cc3)no2)n1-c1ccccc1 [Compound 9b, 2-((3-(4-Chlorophenyl)-1,2,4-oxadiazol-5-yl)methylthio)-3 phenylquinazolin-4(3H)-one]
viability at 96 h, 50 µM [1]: 89% | Effect on cell cycle (A-549 cells): cell cycle arrest at the G2/M transition
